# Laboratory results as given in ChEMBL document CHEMBL5030545, “Discovery of clinical candidate Sivopixant (S-600918): Lead optimization of dioxotriazine derivatives as selective P2X3 receptor antagonists” (Bioorg Med Chem Lett, 2021).
# pIC50: −log10 of the molar value.
# Key:
# Rattus norvegicus [1] = experiment: Analgesic activity in rat model of partial sciatic nerve ligation-induced neuropathic pain assessed as reversal of allodynia at 3 mg/kg, po measured after 3 hrs relative to control; assay type: functional
# Rattus norvegicus [2] = experiment: Analgesic activity in rat model of partial sciatic nerve ligation-induced neuropathic pain assessed as reversal of allodynia at 10 mg/kg, po measured after 3 hrs relative to control; assay type: functional
# [3] = Plasma concentration in rat at 10 mg/kg, po measured after 3 hrs; assay type: ADME, organism-based
# [4] = Clearance in rat at 1 mg/kg, iv; assay type: ADME, organism-based; settings: in vivo
# [5] = Plasma concentration in rat at 3 mg/kg, po measured after 3 hrs; assay type: ADME, organism-based
# [6] = Plasma concentration in rat at 1 mg/kg, po measured after 3 hrs; assay type: ADME, organism-based
# P2X purinoceptor 3 = molecular target: T1, P2X purinoceptor 3 (Rattus norvegicus, UniProt P49654); experiment: Antagonist activity at rat P2X3 receptor
# T1 sequence (P49654 whole entry): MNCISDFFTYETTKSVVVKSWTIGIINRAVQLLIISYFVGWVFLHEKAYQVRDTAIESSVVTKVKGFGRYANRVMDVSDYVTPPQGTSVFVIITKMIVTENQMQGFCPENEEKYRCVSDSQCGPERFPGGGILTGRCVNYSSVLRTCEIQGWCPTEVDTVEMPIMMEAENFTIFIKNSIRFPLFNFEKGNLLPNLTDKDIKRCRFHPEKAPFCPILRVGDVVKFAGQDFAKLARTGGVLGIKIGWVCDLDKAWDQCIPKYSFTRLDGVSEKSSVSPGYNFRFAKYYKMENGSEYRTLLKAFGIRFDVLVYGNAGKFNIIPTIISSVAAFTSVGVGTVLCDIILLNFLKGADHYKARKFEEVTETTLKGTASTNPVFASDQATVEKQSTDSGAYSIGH
# Rattus norvegicus [7] = experiment: Analgesic activity in rat model of partial sciatic nerve ligation-induced neuropathic pain assessed as reversal of allodynia at 1 mg/kg, po measured after 3 hrs relative to control; assay type: functional
# [8] = Half life in rat at 1 mg/kg, iv; assay type: ADME, organism-based; settings: in vivo
# Cytochrome P450 2C9 = Cytochrome P450 2C9 (Homo sapiens, UniProt P11712); experiment: Inhibition of CYP2C9 (unknown origin); assay type: ADME
# Chain of Cytochrome P450 2C9 (P11712 whole entry): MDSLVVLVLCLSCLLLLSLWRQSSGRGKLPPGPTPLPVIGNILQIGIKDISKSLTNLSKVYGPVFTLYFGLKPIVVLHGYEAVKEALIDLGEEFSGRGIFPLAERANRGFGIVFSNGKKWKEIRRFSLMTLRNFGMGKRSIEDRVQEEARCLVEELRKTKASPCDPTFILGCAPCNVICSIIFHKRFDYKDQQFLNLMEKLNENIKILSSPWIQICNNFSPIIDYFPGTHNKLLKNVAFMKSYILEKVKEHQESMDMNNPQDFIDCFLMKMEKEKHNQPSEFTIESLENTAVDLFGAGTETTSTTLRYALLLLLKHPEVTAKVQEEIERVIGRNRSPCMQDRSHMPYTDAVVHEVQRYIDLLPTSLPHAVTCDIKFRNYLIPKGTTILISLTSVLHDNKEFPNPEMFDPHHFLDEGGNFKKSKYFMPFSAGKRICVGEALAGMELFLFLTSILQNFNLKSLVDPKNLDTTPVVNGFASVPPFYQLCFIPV
# [9] = Oral bioavailability in rat at 3 mg/kg; assay type: ADME, organism-based; settings: in vivo
# Cytochrome P450 2C19 = Cytochrome P450 2C19 (Homo sapiens, UniProt P33261); experiment: Inhibition of CYP2C19 (unknown origin); assay type: ADME
# Chain of Cytochrome P450 2C19 (P33261 whole entry): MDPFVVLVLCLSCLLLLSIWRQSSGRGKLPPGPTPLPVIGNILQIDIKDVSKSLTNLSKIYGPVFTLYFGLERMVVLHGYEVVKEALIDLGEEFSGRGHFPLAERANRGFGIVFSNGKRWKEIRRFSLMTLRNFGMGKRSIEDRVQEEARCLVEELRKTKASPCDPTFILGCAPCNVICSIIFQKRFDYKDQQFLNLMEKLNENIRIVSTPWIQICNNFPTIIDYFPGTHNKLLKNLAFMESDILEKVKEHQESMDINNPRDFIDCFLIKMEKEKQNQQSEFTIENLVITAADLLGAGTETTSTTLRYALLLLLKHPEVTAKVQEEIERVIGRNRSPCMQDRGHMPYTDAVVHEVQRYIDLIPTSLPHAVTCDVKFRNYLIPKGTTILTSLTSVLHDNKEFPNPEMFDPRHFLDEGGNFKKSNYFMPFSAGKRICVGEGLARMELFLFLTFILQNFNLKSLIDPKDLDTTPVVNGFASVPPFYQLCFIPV
# P2X purinoceptor 2 = molecular target: T2, P2X purinoceptor 2 (Homo sapiens, UniProt Q9UBL9); experiment: Antagonist activity at P2X2 receptor (unknown origin)
# T2 sequence (Q9UBL9 whole entry): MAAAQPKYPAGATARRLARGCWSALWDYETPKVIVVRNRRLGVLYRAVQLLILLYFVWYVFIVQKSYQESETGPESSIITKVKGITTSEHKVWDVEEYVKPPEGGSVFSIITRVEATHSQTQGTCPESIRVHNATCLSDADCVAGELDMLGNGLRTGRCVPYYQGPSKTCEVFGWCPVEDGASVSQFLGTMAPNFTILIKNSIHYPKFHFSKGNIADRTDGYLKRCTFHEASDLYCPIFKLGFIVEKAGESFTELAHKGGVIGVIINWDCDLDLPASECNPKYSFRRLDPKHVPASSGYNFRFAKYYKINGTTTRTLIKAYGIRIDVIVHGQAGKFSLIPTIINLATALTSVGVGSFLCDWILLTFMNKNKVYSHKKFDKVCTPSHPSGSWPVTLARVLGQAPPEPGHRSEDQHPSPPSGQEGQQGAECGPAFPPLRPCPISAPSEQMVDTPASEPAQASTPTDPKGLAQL
# [10] = Solubility of the compound in JP2 fluid at pH 6.8; assay type: physicochemical
# [11] = Oral bioavailability in rat at 1 mg/kg administered as cassette dose; assay type: ADME, organism-based; settings: in vivo
# P2X purinoceptor 4 = molecular target: T3, P2X purinoceptor 4 (Homo sapiens, UniProt Q99571); experiment: Antagonist activity at P2X4 receptor (unknown origin)
# T3 sequence (Q99571 whole entry): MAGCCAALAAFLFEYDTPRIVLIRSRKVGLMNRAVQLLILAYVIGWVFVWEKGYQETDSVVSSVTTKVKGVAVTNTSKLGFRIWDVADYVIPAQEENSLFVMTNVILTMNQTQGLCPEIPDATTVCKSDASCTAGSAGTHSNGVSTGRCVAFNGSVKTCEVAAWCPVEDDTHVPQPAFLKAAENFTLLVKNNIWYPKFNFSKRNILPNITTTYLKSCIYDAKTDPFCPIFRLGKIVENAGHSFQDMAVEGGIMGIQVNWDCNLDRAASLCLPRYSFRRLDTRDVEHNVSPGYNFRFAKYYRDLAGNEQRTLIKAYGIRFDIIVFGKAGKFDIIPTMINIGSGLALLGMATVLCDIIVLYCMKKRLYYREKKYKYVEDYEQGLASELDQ
# [12] = Solubility of the compound in pH 1.2 JP1 fluid; assay type: physicochemical
# Cytochrome P450 1A2 = molecular target: T4, Cytochrome P450 1A2 (Homo sapiens, UniProt P05177); experiment: Inhibition of CYP1A2 (unknown origin); assay type: ADME
# T4 sequence (P05177 whole entry): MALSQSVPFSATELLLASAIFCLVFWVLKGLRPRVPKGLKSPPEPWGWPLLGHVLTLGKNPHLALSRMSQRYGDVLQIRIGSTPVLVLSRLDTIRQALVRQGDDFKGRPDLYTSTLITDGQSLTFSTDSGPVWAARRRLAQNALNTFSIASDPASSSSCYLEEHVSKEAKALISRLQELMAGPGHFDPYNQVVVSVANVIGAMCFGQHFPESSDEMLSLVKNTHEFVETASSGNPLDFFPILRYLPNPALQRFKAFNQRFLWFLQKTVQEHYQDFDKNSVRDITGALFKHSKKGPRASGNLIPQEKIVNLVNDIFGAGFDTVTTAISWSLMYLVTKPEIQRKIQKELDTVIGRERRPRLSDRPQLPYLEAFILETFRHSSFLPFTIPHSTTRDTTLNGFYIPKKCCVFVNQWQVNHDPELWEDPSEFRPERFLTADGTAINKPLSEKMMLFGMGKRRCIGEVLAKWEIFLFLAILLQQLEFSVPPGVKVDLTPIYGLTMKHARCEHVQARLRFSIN
# [13] = Cmax in rat at 3 mg/kg, po; assay type: ADME, organism-based; set-up: route oral, dose 3 mg/kg; settings: in vivo
# [14] = Protein binding in rat plasma assessed as unbound fraction at 1 mg/kg administered as cassette dose; assay type: ADME, organism-based
# [15] = Free plasma concentration in rat plasma at 1 mg/kg administered as cassette dose; assay type: ADME, organism-based; settings: in vivo
# [16] = Protein binding in rat plasma assessed as unbound fraction at 3 mg/kg, iv; assay type: ADME, organism-based
# Cytochrome P450 3A4 = Cytochrome P450 3A4 (Homo sapiens, UniProt P08684); experiment: Inhibition of CYP3A4 (unknown origin); assay type: ADME
# Chain of Cytochrome P450 3A4 (P08684 whole entry): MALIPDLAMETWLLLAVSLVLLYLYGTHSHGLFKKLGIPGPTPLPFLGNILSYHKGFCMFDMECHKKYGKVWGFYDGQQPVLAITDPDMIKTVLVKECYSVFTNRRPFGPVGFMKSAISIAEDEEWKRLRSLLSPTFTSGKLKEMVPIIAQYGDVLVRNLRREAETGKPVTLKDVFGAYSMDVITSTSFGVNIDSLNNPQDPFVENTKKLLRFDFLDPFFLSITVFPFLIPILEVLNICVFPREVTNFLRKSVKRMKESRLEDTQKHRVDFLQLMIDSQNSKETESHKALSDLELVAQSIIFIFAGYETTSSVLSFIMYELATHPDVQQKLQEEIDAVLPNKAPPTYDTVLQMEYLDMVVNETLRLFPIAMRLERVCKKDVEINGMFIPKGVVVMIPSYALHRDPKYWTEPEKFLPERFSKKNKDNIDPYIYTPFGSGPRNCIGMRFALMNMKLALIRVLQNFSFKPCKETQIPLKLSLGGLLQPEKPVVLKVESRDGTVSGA
# Rattus norvegicus [17] = experiment: Analgesic activity in po dosed rat model of partial sciatic nerve ligation-induced neuropathic pain; assay type: functional
# P2X purinoceptor 7 = molecular target: T5, P2X purinoceptor 7 (Homo sapiens, UniProt Q99572); experiment: Antagonist activity at P2X7 receptor (unknown origin)
# T5 sequence (Q99572 whole entry): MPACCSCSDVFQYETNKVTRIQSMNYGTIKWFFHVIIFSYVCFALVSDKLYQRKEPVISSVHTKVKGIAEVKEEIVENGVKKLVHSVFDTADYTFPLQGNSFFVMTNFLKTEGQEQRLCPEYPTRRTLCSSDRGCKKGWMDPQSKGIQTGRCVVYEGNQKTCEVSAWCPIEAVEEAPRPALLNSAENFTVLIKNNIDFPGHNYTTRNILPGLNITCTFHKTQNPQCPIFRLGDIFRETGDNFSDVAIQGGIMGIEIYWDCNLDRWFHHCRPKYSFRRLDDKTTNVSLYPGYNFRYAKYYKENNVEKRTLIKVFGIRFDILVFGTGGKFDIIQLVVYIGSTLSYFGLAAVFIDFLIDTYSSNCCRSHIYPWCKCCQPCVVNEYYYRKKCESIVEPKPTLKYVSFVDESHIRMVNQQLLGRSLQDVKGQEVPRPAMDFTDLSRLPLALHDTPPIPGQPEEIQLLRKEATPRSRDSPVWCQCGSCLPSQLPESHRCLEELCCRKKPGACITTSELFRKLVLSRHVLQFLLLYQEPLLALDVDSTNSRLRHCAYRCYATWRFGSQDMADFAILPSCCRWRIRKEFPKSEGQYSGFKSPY
# P2X purinoceptor 1 = molecular target: T6, P2X purinoceptor 1 (Homo sapiens, UniProt P51575); experiment: Antagonist activity at P2X1 receptor (unknown origin)
# T6 sequence (P51575 whole entry): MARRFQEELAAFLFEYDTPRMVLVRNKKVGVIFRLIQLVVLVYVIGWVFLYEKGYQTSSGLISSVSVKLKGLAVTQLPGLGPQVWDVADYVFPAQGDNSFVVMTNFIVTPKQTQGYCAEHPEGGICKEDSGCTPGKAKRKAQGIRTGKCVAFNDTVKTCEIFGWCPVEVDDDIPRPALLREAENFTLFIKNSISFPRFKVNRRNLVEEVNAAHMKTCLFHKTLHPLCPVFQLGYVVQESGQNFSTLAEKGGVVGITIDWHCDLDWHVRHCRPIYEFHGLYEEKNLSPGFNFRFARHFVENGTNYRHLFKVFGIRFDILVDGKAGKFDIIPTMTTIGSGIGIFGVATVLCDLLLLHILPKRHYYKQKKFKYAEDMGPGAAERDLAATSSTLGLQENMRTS
# [18] = AUC in rat at 3 mg/kg, po; assay type: ADME, organism-based; set-up: dose 3 mg/kg; settings: in vivo
# Cytochrome P450 2D6 = Cytochrome P450 2D6 (Homo sapiens, UniProt P10635); experiment: Inhibition of CYP2D6 (unknown origin); assay type: functional
# Chain of Cytochrome P450 2D6 (P10635 whole entry): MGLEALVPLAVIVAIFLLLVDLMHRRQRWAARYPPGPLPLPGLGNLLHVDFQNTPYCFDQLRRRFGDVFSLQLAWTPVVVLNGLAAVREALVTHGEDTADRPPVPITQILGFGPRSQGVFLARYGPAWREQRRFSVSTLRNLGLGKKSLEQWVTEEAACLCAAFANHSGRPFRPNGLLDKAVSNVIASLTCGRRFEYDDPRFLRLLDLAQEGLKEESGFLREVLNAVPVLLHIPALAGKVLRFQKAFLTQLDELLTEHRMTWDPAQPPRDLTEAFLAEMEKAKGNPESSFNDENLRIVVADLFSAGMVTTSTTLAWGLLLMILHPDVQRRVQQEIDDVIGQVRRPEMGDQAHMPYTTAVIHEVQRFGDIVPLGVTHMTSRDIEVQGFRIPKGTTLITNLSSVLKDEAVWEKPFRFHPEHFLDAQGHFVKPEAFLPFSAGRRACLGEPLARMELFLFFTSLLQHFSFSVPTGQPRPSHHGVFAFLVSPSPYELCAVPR
SMILES,clearance [4],pIC50 (P2X purinoceptor 3),half-life [8],pIC50 (Cytochrome P450 2C9),bioavailability [9],pIC50 (Cytochrome P450 2C19),pIC50 (P2X purinoceptor 2),solubility [10],bioavailability [11],pIC50 (P2X purinoceptor 4),solubility [12],pIC50 (Cytochrome P450 1A2),Cmax [13],fraction unbound [14],Cp(f) [15],fraction unbound [16],pIC50 (Cytochrome P450 3A4),ED50 (Rattus norvegicus [17]),pIC50 (P2X purinoceptor 7),pIC50 (P2X purinoceptor 1),further results
Cc1ccc(Cn2c(Nc3ccc(OC(C)C)c(Cl)c3)nc(=O)n(CCC(=O)O)c2=O)cc1,2.7 mL/min/kg,8.21,1.6 h,,,,,,,,,,,,,,,,,,Activity (Rattus norvegicus [1]): 23%; Activity (Rattus norvegicus [2]): 40%; concentration at 3 h [3]: 7840 nM; concentration at 3 h [5]: 2650 nM; concentration at 3 h [6]: 1320 nM; Activity (Rattus norvegicus [7]): 11%
C[C@@H](Cn1c(=O)[nH]/c(=N\c2ccc(Oc3ccsn3)cc2)n(Cc2ccc(Cl)cc2)c1=O)C(=O)O,2.2 mL/min/kg,8.11,4.4 h,< 4.70,60%,< 4.70,< 4.52,650 µg/mL,87.6%,< 4.52,0.8 µg/mL,< 4.70,1610 ng/mL,0.012,671 nM,0.012,< 4.70,0.4 mg/kg,< 4.52,< 4.52,AUC [18]: 13700 ng·h/mL; pIC50 (Cytochrome P450 2D6): < 4.70
C[C@@H](Cn1c(=O)[nH]/c(=N\c2ccc(Oc3ccnc(F)c3)cc2)n(Cc2ccc(Cl)cc2)c1=O)C(=O)O,5.9 mL/min/kg,8.42,4.3 h,< 4.70,46.9%,< 4.70,< 4.52,212 µg/mL,43.2%,< 4.52,2.2 µg/mL,< 4.70,597 ng/mL,0.013,738 nM,0.013,< 4.70,0.3 mg/kg,< 4.52,< 4.52,AUC [18]: 4020 ng·h/mL; pIC50 (Cytochrome P450 2D6): < 4.70
